Measurements reported in patent CN113214121A, “一种格列本脲-精氨酸共无定型” (Jiangsu Hengrui Medicine Co Ltd, priority 2020, dated 2021).
Converted amounts (≈) assume the structure as drawn. Where two headings read alike, the source gives them in different places.

Legend:
[1] = Content of glyburide and arginine dissolved in the filtered supernatant, Example 2; format: physicochemical; settings: 8mg glyburide + 8mg arginine in 10mL water, supersaturated solution at 60℃, 0.45um filter
[2] = 25℃; cited from earlier work
[3] = 100mg glyburide (form A) + 36mg arginine in 10mL water, room temperature, stirred overnight, 0.45um filter

SMILES	solubility [1]	solubility in water [2]	arginine content in supernatant [3]	arginine content in supernatant [1]
COc1ccc(Cl)cc1C(=O)NCCc1ccc(S(=O)(=O)NC(=O)NC2CCCCC2)cc1 [格列本脲, N-[2-[4-[[[(环己氨基)羰基]氨基]磺酰基]苯基]乙基]-2-甲氧基-5-氯苯甲酰胺]	800 µg/mL	100 µg/mL (≈ 202 µM)	–	–
N=C(N)NCCCC(N)C(=O)O (stereo not shown) [精氨酸]	–	–	3.50 mg/mL	0.8 mg/mL
